Measurements reported in ChEMBL document CHEMBL1139664, “Identification of a novel series of tetrahydrodibenzazocines as inhibitors of 17beta-hydroxysteroid dehydrogenase type 3” (Bioorg Med Chem Lett, 2006).

Tests used:
[1] = biological target: T1, 17-beta-hydroxysteroid dehydrogenase type 3 (Homo sapiens, UniProt P37058); assay: Inhibition of 17beta-HSD3
T1 sequence (P37058 whole entry): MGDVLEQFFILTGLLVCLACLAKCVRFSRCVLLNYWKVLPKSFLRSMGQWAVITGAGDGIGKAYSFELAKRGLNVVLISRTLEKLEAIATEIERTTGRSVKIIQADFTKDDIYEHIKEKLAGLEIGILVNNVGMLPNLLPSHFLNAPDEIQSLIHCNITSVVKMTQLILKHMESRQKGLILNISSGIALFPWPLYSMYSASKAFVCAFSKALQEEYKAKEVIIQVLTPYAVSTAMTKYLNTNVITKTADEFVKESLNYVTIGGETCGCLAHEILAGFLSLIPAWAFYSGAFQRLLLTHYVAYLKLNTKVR

[2] = biological target: T1, 17-beta-hydroxysteroid dehydrogenase type 3; assay: Inhibition of 17beta-HSD3 by SEAP assay
Liver microsomes = assay: Stability in human liver microsome at 10 uM; assay type: ADME

Row | Compound | IC50 [1] [nM] | IC50 [2] [nM] | Stability (Liver microsomes) [nmol/mg/min]
1 | CC(=O)N1Cc2ccc(N)cc2CCc2ccccc21 | 490 | 490 | –
2 | CNC(=O)c1ccccc1-c1ccc2c(c1)CN(C(C)=O)c1ccc(Cl)cc1CC2 | 25 | 25 | –
3 | COc1ccccc1-c1ccc2c(c1)CN(C(C)=O)c1ccc(Cl)cc1CC2 | 2 | 5 | –
4 | CC(=O)N1Cc2cc(-c3ccccc3CN)ccc2CCc2cc(Cl)ccc21 | 239 | 182 | –
5 | CC(=O)N1Cc2ccccc2CSc2ccccc21 | 400 | 320 | –
6 | CC(=O)N1Cc2cc(-c3ccccc3)ccc2CCc2ccccc21 | – | 4 | –
7 | CC(=O)N1Cc2ccccc2CSc2cc(C)ccc21 | 1000 | 870 | –
8 | CC(=O)N1Cc2ccccc2CCc2ccccc21 | 90 | 220 | –
9 | CC(=O)N1Cc2cc(-c3cccc(NS(C)(=O)=O)c3)ccc2CCc2cc(Cl)ccc21 | 140 | 190 | –
10 | COC(=O)c1cccc(-c2ccc3c(c2)CN(C(C)=O)c2ccc(Cl)cc2CC3)c1 | 1.4 | 2 | –
11 | CC(=O)N1Cc2ccccc2CSc2ccc(C(F)(F)F)cc21 | 2810 | – | –
12 | CC(=O)c1ccccc1-c1ccc2c(c1)CN(C(C)=O)c1ccc(Cl)cc1CC2 | – | 0.5 | –
13 | COc1cccc(-c2ccc3c(c2)CN(C(C)=O)c2ccc(Cl)cc2CC3)c1 | 8 | 53 | –
14 | CC(=O)N1Cc2ccccc2CNc2ccccc21 | 4740 | > 10000 | –
15 | COc1ccc(-c2ccc3c(c2)CN(C(C)=O)c2ccc(Cl)cc2CC3)cc1 | 3 | 48 | –
16 | CC(=O)N1Cc2cc(-c3cccc(CN)c3)ccc2CCc2cc(Cl)ccc21 | 290 | 180 | –
17 | CC(=O)N1Cc2ccccc2CSc2cccc(Cl)c21 | 11500 | – | –
18 | CC(=O)N1Cc2ccccc2CSc2cc(S(C)(=O)=O)ccc21 | > 10000 | – | –
19 | CC(=O)N1Cc2cc(-c3ccc(C#N)cc3)ccc2CCc2cc(Cl)ccc21 | 3 | 19 | –
20 | CC(=O)N1Cc2cc(-c3ccccc3C#N)ccc2CCc2cc(Cl)ccc21 | 5 | 62 | –
21 | NC(=O)N1Cc2ccc(Br)cc2CCc2ccccc21 | 280 | 930 | –
22 | CCN1Cc2ccc(Br)cc2CCc2ccccc21 | > 1000 | 2200 | –
23 | CC(=O)N1Cc2cc(-c3ccccc3CO)ccc2CCc2cc(Cl)ccc21 | 0.9 | 2 | –
24 | CC(=O)N1Cc2ccc(Br)cc2CCc2ccccc21 | 7 | 36 | –
25 | CC(=O)N1Cc2ccccc2CCc2cc(Cl)ccc21 | 70 | 630 | –

The next lines start with the values.

Row | IC50 [1] [nM] | IC50 [2] [nM] | Stability (Liver microsomes) [nmol/mg/min] | Compound
26 | 90 | 290 | – | CC(=O)N1Cc2ccccc2CSc2cc(F)ccc21
27 | 2 | 9 | – | CC(=O)N1Cc2cc(-c3ccccc3NS(C)(=O)=O)ccc2CCc2cc(Cl)ccc21
28 | 10 | 130 | – | CC(=O)N1Cc2ccccc2CSc2cc(Cl)c(Cl)cc21
29 | 4860 | – | – | CC(=O)N1Cc2ccccc2CSc2cc(O)ccc21
30 | 30 | 170 | – | CC(=O)N1Cc2ccccc2CSc2ccc(Cl)cc21
31 | 0.7 | 1 | 0.4 | COC(=O)c1ccccc1-c1ccc2c(c1)CN(C(C)=O)c1ccc(Br)cc1CC2
32 | 760 | 1300 | – | CC(=O)N1Cc2ccccc2CSc2c1ccc(Cl)c2Cl
33 | > 1000 | 2980 | – | CC(=O)N1Cc2ccc(C(N)=O)cc2CCc2ccccc21
34 | 250 | 120 | – | CC(=O)N1Cc2ccccc2CSc2cc(Br)ccc21
35 | 50 | 130 | – | CC(=O)N1Cc2ccccc2CCc2ccc(Cl)cc21
36 | 100 | 160 | – | CC(=O)N1Cc2ccccc2CSc2cc(Cl)ccc21
37 | 240 | 500 | – | CC(=O)N1Cc2ccccc2/C=C\c2cc(Cl)ccc21
38 | 320 | 1750 | – | O=C(C1CC1)N1Cc2ccc(Br)cc2CCc2ccccc21
39 | 9 | 32 | – | CC(=O)N1Cc2cc(Br)ccc2CCc2ccccc21
40 | 4 | 18 | – | CC(=O)N1Cc2cc(-c3ccccc3)ccc2CCc2cc(Cl)ccc21
41 | 3 | 15 | – | CC(=O)N1Cc2cc(-c3cccc(C#N)c3)ccc2CCc2cc(Cl)ccc21
42 | 160 | 260 | – | CC(=O)N1Cc2ccc(NC(=O)c3ccccc3)cc2CCc2ccccc21
43 | – | 0.5 | 0.9 | COC(=O)c1ccccc1-c1ccc2c(c1)CN(C(C)=O)c1ccc(Cl)cc1CC2
44 | 2970 | – | – | CC(=O)N1Cc2ccccc2COc2ccccc21
45 | 8 | 4 | – | CC(=O)N1Cc2ccc(NCc3ccccc3)cc2CCc2ccccc21
46 | 2060 | > 10000 | – | COc1ccc2c(c1)SCc1ccccc1CN2C(C)=O
